Test results taken from patent US5525627A, “Esters of acyl carnitines with long-chain aliphatic alcohols and pharmaceutical compositions containing same having antimycotic activity” (Sigma-Tau Industrie Farmaceutiche Riunite S.p.A., priority 1992, dated 1996).
Read-outs that look alike come from different tables or passages of the source.

Tests used:
Candida albicans (562) = assay: MIC for yeast and yeast-like strains; format: cell-based; conditions: 48 hours, 35° C., read-out: Minimal Inhibitory Concentration (MIC)
Experimental: (§1) The following strains were used (the number of strains is in brackets): Candida (13); Criptococcus (2); Saccharormyces (1); Torulopsis (1).
(§2) Yeast Nitrogen Base supplemented with 0.15% asparagine and 1.0% glucose (as carbon source) was the medium utilized in the assays.
(§3) This medium was buffered with 0.165 M 2-(N-morpholino) propane sulfonic acid (MOPS), a non-chelating buffer. […]
(§4) The inoculum was prepared from an overnight broth culture (a 48-hour culture only for Cryptococcus) in Sabouraud broth and appropriately diluted to yield a final suspension containing approximately 5.0×10^6 Colony Forming Units per ml (CFU/ml), when compared to the Mc Farland's standard control (BRAY W. E., Clinical Laboratory Methods, 5th Ed. C. V. MOSBY, St. Louis, Mo, 1957).
(§5) After further diluting (1:50), a […] volume of such fungal suspensions and an equal volume of the substance solutions were distributed into each well of a microtiter plate (96 wells, round bottom). Such a procedure eventually allowed for an "in vitro" antimycotic activity assay utilizing final fungal inocula of approximately 5.0×10^4 CFU/ml.

Candida albicans (Ca 2) = assay: MIC for yeast and yeast-like strains; format: cell-based; conditions: 48 hours, 35° C., read-out: Minimal Inhibitory Concentration (MIC)
Experimental: as §1, §2, §3, §4, §5

Candida krusei (ISS 1) = assay: MIC for yeast and yeast-like strains; format: cell-based; conditions: Pichia kudriavzevii; 48 hours, 35° C.; read-out: Minimal Inhibitory Concentration (MIC)
Experimental: as §1, §2, §3, §4, §5

[1] = system: Candida tropicalis (5705); assay: MIC for yeast and yeast-like strains; format: cell-based; conditions: 48 hours, 35° C., read-out: Minimal Inhibitory Concentration (MIC)
Experimental: as §1, §2, §3, §4, §5

[2] = system: Saccharomyces cerevisiae (ATCC 7752); assay: MIC for yeast and yeast-like strains; format: cell-based; conditions: ATCC7752, 48 hours, 35° C., read-out: Minimal Inhibitory Concentration (MIC)
Experimental: as §1, §2, §3, §4, §5

yeast-like fungi = assay: MIC / MFC for yeast-like fungi, all strains; format: cell-based, Candida, Cryptococcus, Saccharomyces, Torulopsis; conditions: read-out: Mean MIC values
Experimental: as §1, §2, §3, §4, §5
The minimal fungicidal concentration was evaluated by spot-transferring onto Petri dishes, containing Sabouraud agar, 0.01-ml volumes of all the samples showing no visible fungal growth.

[3] = system: Aspergillus fumigatus (ATCC 28212); assay: MIC for filamentous fungi; format: cell-based; conditions: ATCC28212, read-out: Minimal Inhibitory Concentration (MIC)
From the text: (§6) The following strains were used (the number of strains is in brackets): Aspergillus (5); Fusarium (1); Mucor (1); Penicillium (1).
(§7) The tested substances were: ST 712, ST 722, ST 982, ST 983, ST 1000, ST 1001, ST 1032, ST 1033, ST 1034, ST 1036, ST 1037, ST 1038, ST 1050, ST 1051, ST 1052, ST 1053. The assay medium was the same as the one used in the previous study. The conidia from 72-hour cultures in Sabouraud agar, collected by washing with Sabouraud medium and Tween 80 (one drop of Tween per 10 ml of medium), were utilized as inoculum (5.0×10^4 CFU/ml).
(§8) The assay was performed using the same procedure as described for yeast-like fungi.
(§9) Also the evaluation of MIC and MFC was as reported previously.

[4] = system: Aspergillus niger (ATCC 16404); assay: MIC for filamentous fungi; format: cell-based; conditions: ATCC16404, read-out: Minimal Inhibitory Concentration (MIC)
From the text: as §6, §7, §8, §9

Fusarium sp. (ISS 1) = assay: MIC for filamentous fungi; format: cell-based; conditions: read-out: Minimal Inhibitory Concentration (MIC)
From the text: as §6, §7, §8, §9

Mucor mucedo (ATCC 7941) = assay: MIC for filamentous fungi; format: cell-based; conditions: ATCC7941, read-out: Minimal Inhibitory Concentration (MIC)
From the text: as §6, §7, §8, §9

Penicillium sp. (1302) = assay: MIC for filamentous fungi; format: cell-based; conditions: read-out: Minimal Inhibitory Concentration (MIC)
From the text: as §6, §7, §8, §9

filamentous fungi = assay: MIC / MFC for filamentous fungi, all strains; format: cell-based, Aspergillus, Fusarium, Mucor, Penicillium; conditions: read-out: Mean MIC values
From the text: as §6, §7, §8, §9

[5] = system: Epidermophyton floccosum (IHEM 3495); assay: MIC for dermatophytic fungi; format: cell-based; conditions: 35° C., 96 hours, read-out: Minimal Inhibitory Concentration (MIC)
Experimental: (§10) The following strains were used: Trichophyton menthagrophytes ATCC 9533, Trichophyton rubrum IHEM 4274, Microsporum canis IHEM 3522, Epydermophyton floccosum IHEM 3495. The tested substances were: ST 722, ST 1033, ST 1037, ST 1050, ST 1051, ST 1052,. ST 1053.
(§11) The assay was performed following the same procedure described for the yeasts, by using 7-day fungi cultures grown at 30° C. in Potato Dextrose agar, and harvested with Sabouraud broth and Tween 80 (0.5%).
(§12) After washing with Yeast Nitrogen Base, supplemented with asparagine and glucose (as carbon source), the fungal suspension was fragmented using a tissue grinder until the largest clumps or aggregates were undetectable within the grinder. This fungal suspension was then appropriately diluted in YNB to yield a concentration of 2.0×10^5 infective particles/ml (small mycelium fragments, micro-and macroaleuriospores).
(§13) Volumes of 100 μl both of the fungal suspensions and substance solutions, two-fold serially diluted in assay medium, were distributed into each well of a microtiter plate (96 wells, round bottom), which was incubated at 35° C. for 96 hours.

[6] = system: Microsporum canis (IHEM 3522); assay: MIC for dermatophytic fungi; format: cell-based; conditions: 35° C., 96 hours, read-out: Minimal Inhibitory Concentration (MIC)
Experimental: as §10, §11, §12, §13

[7] = system: Trichophyton menthagrophites (ATCC 9533); assay: MIC for dermatophytic fungi; format: cell-based; conditions: ATCC9533, 35° C., 96 hours, read-out: Minimal Inhibitory Concentration (MIC)
Experimental: as §10, §11, §12, §13

[8] = system: Trichophyton rubrum (IHEM 4274); assay: MIC for dermatophytic fungi; format: cell-based; conditions: 35° C., 96 hours, read-out: Minimal Inhibitory Concentration (MIC)
Experimental: as §10, §11, §12, §13

dermatophytic fungi = assay: MIC / MFC for dermatophytic fungi, all strains; format: cell-based, Trichophyton, Microsporum, Epidermophyton; conditions: versus susceptible strains
Experimental: as §10, §11, §12, §13

Candida albicans (A 54) = assay: MIC for yeast and yeast-like strains; format: cell-based; conditions: 48 hours, 35° C., read-out: Minimal Inhibitory Concentration (MIC)
Experimental: as §1, §2, §3, §4, §5

[9] = system: Cryptococcus neoformans (4711); assay: MIC for yeast and yeast-like strains; format: cell-based; conditions: 48 hours, 35° C., read-out: Minimal Inhibitory Concentration (MIC)
Experimental: as §1, §2, §3, §4, §5

[10] = system: Torulopsis candida (D.S.); assay: MIC for yeast and yeast-like strains; format: cell-based; conditions: Suzukiozyma candida; 48 hours, 35° C.; read-out: Minimal Inhibitory Concentration (MIC)
Experimental: as §1, §2, §3, §4, §5

Candida albicans (ISS 1) = assay: MIC for yeast and yeast-like strains; format: cell-based; conditions: 48 hours, 35° C., read-out: Minimal Inhibitory Concentration (MIC)
Experimental: as §1, §2
(§14) This medium was buffered with 0.165 M 2-(N-morpholino) propane sulfonic acid (MOPS), a non-chelating buffer.
(§15) Antimicrob. Agents Cheroother. Aug. 34.8:1542-1545).
as §4, §5

Candida glabrata (ISS 1) = assay: MIC for yeast and yeast-like strains; format: cell-based; conditions: Nakaseomyces glabratus; 48 hours, 35° C.; read-out: Minimal Inhibitory Concentration (MIC)
Experimental: as §1, §2, §14, §15, §4, §5

[11] = system: Candida guilliermondii (ISS 1); assay: MIC for yeast and yeast-like strains; format: cell-based; conditions: Meyerozyma guilliermondii; 48 hours, 35° C.; read-out: Minimal Inhibitory Concentration (MIC)
Experimental: as §1, §2, §14, §15, §4, §5

[12] = system: Candida parapsilosis (ISS 1); assay: MIC for yeast and yeast-like strains; format: cell-based; conditions: Lodderomyces parapsilosis; 48 hours, 35° C.; read-out: Minimal Inhibitory Concentration (MIC)
Experimental: as §1, §2, §14, §15, §4, §5

[13] = system: Candida tropicalis (ISS 1); assay: MIC for yeast and yeast-like strains; format: cell-based; conditions: 48 hours, 35° C., read-out: Minimal Inhibitory Concentration (MIC)
Experimental: as §1, §2, §14, §15, §4, §5

Compound | MIC (Candida albicans (562)) [µg/mL] | MIC (Candida albicans (Ca 2)) [µg/mL] | MIC (Candida krusei (ISS 1)) [µg/mL] | MIC [1] [µg/mL] | MIC [2] [µg/mL] | MIC (yeast-like fungi; versus susceptible strains) [µg/mL] | MIC [3] [µg/mL] | MIC [4] [µg/mL] | MIC (Fusarium sp. (ISS 1)) [µg/mL] | MIC (Mucor mucedo (ATCC 7941)) [µg/mL] | MIC (Penicillium sp. (1302)) [µg/mL] | MIC (filamentous fungi; versus susceptible strains) [µg/mL] | MIC [5] [µg/mL] | MIC [6] [µg/mL] | MIC [7] [µg/mL] | MIC [8] [µg/mL] | MIC (dermatophytic fungi) [µg/mL] | MIC (Candida albicans (A 54)) [µg/mL] | MIC [9] [µg/mL] | MIC [10] [µg/mL] | other results
CCCCCCCCCCCCCOC(=O)C[C@H](C[N+](C)(C)C)OC(=O)C(C)CCCC (stereo partly drawn) [ST 1051] | 3.12 | 1.56 | 3.12 | 3.12 | 3.12 | 2.8 | 3.12 | 6.25 | 6.25 | 6.25 | 3.12 | 6.87 | 25 | 12.5 | 12.5 | 6.25 | 14.1 |  |  |  | 
CCCCCCCCCCCOC(=O)C[C@H](C[N+](C)(C)C)OC(=O)CCCCCCC [ST 1000] |  | 1.56 | 1.56 |  |  | 4.21 | 3.12 | 3.12 | 3.12 | 6.25 | 3.12 | 3.76 |  |  |  |  |  | 6.25 | 1.56 | 6.25 | MIC (Candida albicans (ISS 1)): 3.12 µg/mL; MIC (Candida glabrata (ISS 1)): 6.25 µg/mL; MIC [11]: 6.25 µg/mL; MIC [12]: 6.25 µg/mL; MIC [13]: 3.12 µg/mL
CCCCCCCCCCCCCCCC(=O)O[C@H](CC(=O)OCCCCCCCCCCC)C[N+](C)(C)C [ST 983] |  | > 100 |  | > 100 |  | > 100 | > 100 | > 100 | > 100 | > 100 | > 100 | > 100 |  |  |  |  |  | > 100 | > 100 | > 100 | 
CCCCCCCCCCCCCOC(=O)C[C@H](C[N+](C)(C)C)OC(=O)CCCCCCC [ST 1053] | 12.5 | 3.12 | 3.12 | 6.25 | 3.12 | 5.62 | 6.25 | 3.12 | 6.25 | 12.5 | 3.12 | 6.24 | 50 | 6.25 | 6.25 | 6.25 | 14.1 |  |  |  | 
CCCCCCCCCCCOC(=O)C[C@H](C[N+](C)(C)C)OC(=O)CCCCCCCCCC [ST 982] |  | > 100 |  | > 100 |  |  | > 100 | > 100 | > 100 | > 100 | > 100 |  |  |  |  |  |  | > 100 | > 100 | > 100 | MIC (yeast-like fungi): > 100 µg/mL; MIC (filamentous fungi): > 100 µg/mL
